According to patent publication US20220348592A1, “FUSED HETEROCYCLIC DERIVATIVES” (Janssen Sciences Ireland Unlimited Company, priority 2019, published 2022):
Read-outs that look alike come from different tables or passages of the source.

Key:
HBV = assay: Anti-HBV activity: intracellular HBV DNA by real-time PCR in HepG2.117 cell line; assay type: cell-based, Hepatitis B virus; details: Hepatitis B virus, read-out: HBV-AVE-HepG2.117 EC50 (μM, mean value)
Protocol: The anti HBV activity was measured using the HepG2.117 cell line, a stable, inducibly HBV producing cell line, which replicates HBV in the absence of doxicycline (Tet-off system). The HepG2 cell line is available from ATCC® under number HB-8065. Transfection of the HepG2 cell line can be as described in Sun and Nassal 2006 Journal of Hepatology 45 (2006) 636-645 “Stable HepG2- and Huh7-based human hepatoma cell lines for efficient regulated expression of infectious hepatitis B virus”.
For the antiviral assay, HBV replication was induced, followed by a treatment with serially diluted compound in 96-well plates. After 3 days of treatment, the antiviral activity was determined by quantification of intracellular HBV DNA using real-time PCR and an HBV specific primer set and probe.

[1] = Cytotoxicity in HepG2.117 cells, ATPlite Luminescence Assay; assay type: cell-based, human; details: human, incubated for 3 days, mean value, read-out: TOX-HepG2.117 CC50 (μM, mean value)
Protocol: Cytotoxicity of the compounds was tested using HepG2 or HepG2.117 cells, incubated for 3 days in the presence of compounds. The viability of the cells was assessed using the PERKIN ELMER ATPlite Luminescence Assay System.”

[2] = 72 h, HepG2.117 cells, 3 days of treatment, intracellular HBV DNA by real-time PCR, mean value

Compound	EC50 (HBV; [2])	CC50 at 3 days [1]	EC50 (HBV; HepG2.117, 72 h)
C[C@@H]1Cc2nn3c(c2CN1C(=O)c1ccc(Cl)c(Cl)c1)C(=O)N([C@H](C)c1ccc(C#N)cc1)CC3 (relative stereo) [C88*R]	0.076 µM	> 50 µM	
C[C@@H]1Cc2nn3c(c2CN1C(=O)c1ccc(Cl)c(Cl)c1)C(=O)N([C@@H](C)c1ccc(C#N)cc1)CC3 (relative stereo) [C88*S]	0.023 µM	> 50 µM	
C[C@@H]1Cc2nn3c(c2CN1C(=O)c1ccc(Cl)c(Cl)c1)C(=O)N([C@H](C)c1ccc(C(F)(F)F)cc1)CC3 (relative stereo) [C105*R]	0.059 µM	14.6 µM	
C[C@@H]1Cc2nn3c(c2CN1C(=O)c1ccc(Cl)c(Cl)c1)C(=O)N([C@@H](C)c1ccc(C(F)(F)F)cc1)CC3 (relative stereo) [C105*S]	0.297 µM	> 50 µM	
C[C@@H]1Cc2nn3c(c2CN1C(=O)c1ccc(Cl)c(Cl)c1)C(=O)N([C@@H](C)c1ccccc1C(F)(F)F)CC3 (relative stereo) [C123*R]	0.174 µM	20 µM	
C[C@@H]1Cc2nn3c(c2CN1C(=O)c1ccc(Cl)c(Cl)c1)C(=O)N([C@H](C)c1ccccc1C(F)(F)F)CC3 (relative stereo) [C123*S]	0.517 µM	19.2 µM	
C[C@@H]1Cc2nn3c(c2CN1C(=O)c1ccc(Cl)c(Cl)c1)C(=O)N([C@H](C)c1c[nH]nn1)CC3 (single isomer, unassigned) [Compound 31, (3R)-2-(3,4-Dichlorobenzoyl)-3-methyl-9-[(1*R)-1-(1H-1,2,3-triazol-4-yl)ethyl]-1,2,3,4,8,9-hexahydropyrido[4′,3′:3,4]pyrazolo[1,5-a]pyrazin-10(7H)-one]	0.075 µM	> 50 µM	
C[C@@H]1Cc2nn3c(c2CN1C(=O)c1ccc(Cl)c(Cl)c1)C(=O)N([C@@H](C)c1c[nH]nn1)CC3 (single isomer, unassigned) [Compound 32, (3R)-2-(3,4-Dichlorobenzoyl)-3-methyl-9-[(1*S)-1-(1H-1,2,3-triazol-4-yl)ethyl]-1,2,3,4,8,9-hexahydropyrido[4′,3′:3,4]pyrazolo[1,5-a]pyrazin-10(7H)-one]	0.332 µM	> 50 µM	
CN1O[C@@H](CO)Cn2nc3c(c2C1=O)CN(C(=O)c1ccc(Cl)c(Cl)c1)CC3 (single isomer, unassigned) [Compound 45, (4*R)-10-(3,4-Dichlorobenzoyl)-4-(hydroxymethyl)-2-methyl-4,5,8,9,10,11-hexahydropyrido-[4′,3′:3,4]pyrazolo[5,1-d][1,2,5]oxadiazepin-1(2H)-one]	0.192 µM	> 50 µM	
CN1O[C@H](CO)Cn2nc3c(c2C1=O)CN(C(=O)c1ccc(Cl)c(Cl)c1)CC3 (single isomer, unassigned) [Compound 46, (4*S)-10-(3,4-Dichlorobenzoyl)-4-(hydroxymethyl)-2-methyl-4,5,8,9,10,11-hexahydropyrido-[4′,3′:3,4]pyrazolo[5,1-d][1,2,5]oxadiazepin-1(2H)-one]	0.505 µM	> 50 µM	
O=C1NCCn2nc3c(c21)CN(C(=O)c1ccc(Cl)c(Cl)c1)CC3 [Compound 1, 2-(3,4-Dichlorobenzoyl)-1,2,3,4,8,9-hexahydropyrido[4′,3′:3,4]pyrazolo[1,5-a]pyrazin-10(7H)-one]	9.63 µM	> 50 µM	
O=C(c1ccc(Cl)c(Cl)c1)N1CCc2nn3c(c2C1)C(=O)N(Cc1ccccc1)CC3 [Compound 3, 9-Benzyl-2-(3,4-dichlorobenzoyl)-1,2,3,4,8,9-hexahydropyrido[4′,3′:3,4]pyrazolo[1,5-a]pyrazin-10(7H)-one]		25.3 µM	0.188 µM
COc1ccc(CN2CCn3nc4c(c3C2=O)CN(C(=O)c2ccc(Cl)c(Cl)c2)CC4)cc1 [Compound 4, 2-(3,4-Dichlorobenzoyl)-9-[(4-methoxyphenyl)methyl]-1,2,3,4,8,9-hexahydropyrido[4′,3′:3,4]-pyrazolo[1,5-a]pyrazin-10(7H)-one]	0.091 µM	17.9 µM	
CC(c1ccncc1)N1CCn2nc3c(c2C1=O)CN(C(=O)c1ccc(Cl)c(Cl)c1)CC3 (centres unmarked) [Compound 5, 2-(3,4-Dichlorobenzoyl)-9-[1-(pyridin-4-yl)ethyl]-1,2,3,4,8,9-hexahydropyrido[4′,3′:3,4-]pyrazolo[1,5-a]pyrazin-10(7H)-one]	0.213 µM	> 50 µM	
O=C(c1ccc(Cl)c(Cl)c1)N1CCc2nn3c(c2C1)C(=O)N(Cc1nccs1)CC3 [Compound 7, 2-(3,4-Dichlorobenzoyl)-9-[(1,3-thiazol-2-yl)methyl]-1,2,3,4,8,9-hexahydropyrido[4′,3′:3,4]-pyrazolo[1,5-a]pyrazin-10(7H)-one]	0.399 µM	> 50 µM	
O=C(c1ccc(Cl)c(Cl)c1)N1CCc2nn3c(c2C1)C(=O)N(Cc1c[nH]c2ccccc12)CC3 [Compound 8, 2-(3,4-Dichlorobenzoyl)-9-[(1H-indol-3-yl)methyl]-1,2,3,4,8,9-hexahydropyrido[4′,3′:3,4]-pyrazolo[1,5-a]pyrazin-10(7H)-one]	< 0.039 µM	10.8 µM	
O=C(c1ccc(Cl)c(Cl)c1)N1CCc2nn3c(c2C1)C(=O)N(Cc1cccc2[nH]ccc12)CC3 [Compound 9, 2-(3,4-Dichlorobenzoyl)-9-[(1H-indol-4-yl)methyl]-1,2,3,4,8,9-hexahydropyrido[4′,3′:3,4]-pyrazolo[1,5-a]pyrazin-10(7H)-one]	0.054 µM	16.4 µM	
O=C(c1ccc(Cl)c(Cl)c1)N1CCc2nn3c(c2C1)C(=O)N(Cc1ccc(OC(F)F)cc1)CC3 [Compound 10, 2-(3,4-Dichlorobenzoyl)-9-{[4-(difluoromethoxy)phenyl]methyl}-1,2,3,4,8,9-hexahydropyrido-[4′,3′:3,4]pyrazolo[1,5-a]pyrazin-10(7H)-one]	0.062 µM	7.26 µM	
COc1ccc(CN2CCn3nc4c(c3C2=O)CN(C(=O)c2ccc(Cl)c(Cl)c2)[C@H](C)C4)cc1 [Compound 11, (3R)-2-(3,4-Dichlorobenzoyl)-9-[(4-methoxyphenyl)methyl]-3-methyl-1,2,3,4,8,9-hexahydro-pyrido[4′,3′:3,4]pyrazolo[1,5-a]pyrazin-10(7H)-one]	0.054 µM	8.43 µM	
C[C@@H]1Cc2nn3c(c2CN1C(=O)c1ccc(Cl)c(Cl)c1)C(=O)N(Cc1ccc(F)cc1)CC3 [Compound 12, (3R)-2-(3,4-Dichlorobenzoyl)-9-[(4-fluorophenyl)methyl]-3-methyl-1,2,3,4,8,9-hexahydro-pyrido[4′,3′:3,4]pyrazolo[1,5-a]pyrazin-10(7H)-one]	0.066 µM	25.3 µM	
C[C@@H]1Cc2nn3c(c2CN1C(=O)c1ccc(Cl)c(Cl)c1)C(=O)N(Cc1ccc(OC(F)F)cc1)CC3 [Compound 13, (3R)-2-(3,4-Dichlorobenzoyl)-9-{[4-(difluoromethoxy)phenyl]methyl}-3-methyl-1,2,3,4,8,9-hexahydropyrido[4′,3′:3,4]pyrazolo[1,5-a]pyrazin-10(7H)-one]	0.055 µM		
C[C@@H]1Cc2nn3c(c2CN1C(=O)c1ccc(Cl)c(Cl)c1)C(=O)N(Cc1ccc(OC(F)(F)F)cc1)CC3 [Compound 14, (3R)-2-(3,4-Dichlorobenzoyl)-3-methyl-9-{[4-(trifluoromethoxy)phenyl]methyl}-1,2,3,4,8,9-hexahydropyrido[4′,3′:3,4]pyrazolo[1,5-a]pyrazin-10(7H)-one]	0.085 µM	6.96 µM	
C[C@@H]1Cc2nn3c(c2CN1C(=O)c1ccc(Cl)c(Cl)c1)C(=O)N(Cc1ccccn1)CC3 [Compound 15, (3R)-2-(3,4-Dichlorobenzoyl)-3-methyl-9-[(pyridin-2-yl)methyl]-1,2,3,4,8,9-hexahydropyrido-[4′,3′:3,4]pyrazolo[1,5-a]pyrazin-10(71)-one]	0.055 µM	> 50 µM	
C[C@@H]1Cc2nn3c(c2CN1C(=O)c1ccc(Cl)c(Cl)c1)C(=O)N(Cc1cccnc1)CC3 [Compound 16, (3R)-2-(3,4-Dichlorobenzoyl)-3-methyl-9-[(pyridin-3-yl)methyl]-1,2,3,4,8,9-hexahydropyrido-[4′,3′:3,4]pyrazolo[1,5-a]pyrazin-10(7H)-one]	0.079 µM	> 50 µM	
C[C@@H]1Cc2nn3c(c2CN1C(=O)c1ccc(Cl)c(Cl)c1)C(=O)N(Cc1ccncc1)CC3 [Compound 17, (3R)-2-(3,4-Dichlorobenzoyl)-3-methyl-9-[(pyridin-4-yl)methyl]-1,2,3,4,8,9-hexahydropyrido-[4′,3′:3,4]pyrazolo[1,5-a]pyrazin-10(7H)-one]		> 50 µM	0.436 µM
C[C@@H]1Cc2nn3c(c2CN1C(=O)c1ccc(Cl)c(Cl)c1)C(=O)N(Cc1cccc2c1ccn2C)CC3 [Example C120]	0.047 µM		
COc1ccc(CN2CCn3nc4c(c3C2=O)CN(C(=O)c2ccc(Cl)c(Cl)c2)[C@H](C)C4)cc1F [Example C140]	0.032 µM		
COc1cc(CN2CCn3nc4c(c3C2=O)CN(C(=O)c2ccc(Cl)c(Cl)c2)[C@H](C)C4)ccc1OC(F)F [Example C205]	0.04 µM		
Cc1ccc(CN2CCn3nc4c(c3C2=O)CN(C(=O)c2ccc(Cl)c(Cl)c2)[C@H](C)C4)c(F)c1 [Example C206]	0.038 µM		
